Measurements reported in US9598349B2, “Quinone based nitric oxide donating compounds for ophthalmic use” (NICOX SCIENCE IRELAND, priority 2013, dated 2017).
Read-outs that look alike come from different tables or passages of the source.

Legend:
[1] = system: lipidic peroxidation of membrane lipids in rat hepatic microsomes; assay: In vitro antioxidant activity (TBARS test); format: biochemical; conditions: read-out: Antioxidant activity IC50 μM (CL 95%)
Procedure: The antioxidant properties of compound (1) (example 1), its precursors (3-methyl-3-(2,4,5-trimethyl-3,6-dioxocyclohexa-1,4-dien-1-yl)butanoic acid, described in Example 1 Step 2 (Intermediate 2) and reference antioxidant compounds were assessed after NADPH-induced lipidic peroxidation of membrane lipids in rat hepatic microsomes using the detection of 2-thiobarbituric acid reactive substances (TBARS) by visible spectroscopy.
Hepatic microsomal membranes from male Wistar rats (200-250 g) were prepared by differential centrifugation (8000 g, 20 min; 120000 g, 1 h) in a HEPES/sucrose buffer (10 mM, 250 mM, pH 7.4) and stored at −80° C. Incubation was performed at 37° C. in a Tris-HCl/KCl (100 mM/150 mM, pH 7.4) containing microsomal membranes (2 mg prot/mL), sodium ascorbate (100 μM), and DMSO solutions of the tested compounds.
Lipid peroxidation was initiated by adding ADP-FeCl3 and NADPH (Method A) or 2.5 μM FeSO4 (Method B) (as described by Boschi D. et al., J. Med. Chem. 2006, 49:2886-2897). Aliquots were taken from the incubation mixture at 5, 15, and 30 min and treated with trichloroacetic acid (TCA) 10% w/v.
Lipid peroxidation was assessed by spectrophotometric (543 nm) determination of the TBARS consisting mainly of malondialdehyde (MDA). TBARS concentrations (expressed in nmol/mg protein) were obtained by interpolation with a MDA standard curve. The antioxidant activity of tested compounds was evaluated as the percent inhibition of TBARS production with respect to control samples, using the values obtained after 30 min of incubation. IC50 values were calculated by nonlinear regression analysis.

[2] = system: hypertonic saline-induced IOP increase; assay: IOP lowering activity in hypertonic saline-induced IOP increase in rabbits (Example 11); format: in vivo, New Zealand White rabbits
Procedure: The Intraocular pressure (IOP) lowering activity of compound (1) (Example 1) was assessed in an animal model of elevated IOP.
(§1) Adults male New Zealand White rabbits weighting 1.8-2.0 Kg were used in the experiments.
(§2) Animals were anesthetized using 20 mg/ml/kg of sodium pentobarbital. The increase in IOP was induced by the injection of 0.1 ml of hypertonic saline solution (5%) into the vitreous bilaterally (Krauss et al., 2011, Orihashi et al., 2005).
IOP was measured using a Tono-Pen XL prior to hypertonic saline injection (basal) and at 30, 60, 90, 120, 240 and 360 min thereafter. Vehicle (5% cremophor-EL; 0.3% DMSO; 0.2 mg/ml Benzalkonium chloride (bac) in PBS pH 6.0,) or compound of the invention were instilled as eye drops immediately after hypertonic saline injection. Eyes were randomly assigned to different treatment groups. Vehicle or compounds of the invention were directly instilled into the conjunctiva pocket at the desired doses. One drop of 0.2% oxybuprocaine hydrochloride (Novesine, Sandoz) diluted 1:1 with saline was instilled in each eye immediately before each set of pressure measurements.
Results are reported in Table 2 in which the ocular hypotensive activity of compound (1) is expressed as mean average of IOP measurements at 60 and 120 minutes following topical administration.

[3] = system: hypertonic saline-induced IOP increase; assay: IOP lowering activity in hypertonic saline-induced IOP increase in rabbits, two concentrations (Example 16); format: in vivo, New Zealand White rabbits; conditions: for IOP change (mmHg): versus vehicle and versus basal IOP
Procedure: The present study evaluated the intraocular pressure lowering effect of single applications of two different concentrations (1% and 0.3%) of compound (1) in rabbits with experimental increase in IOP.
as §1
The transient increase in IOP was induced by the injection of 0.1 ml of hypertonic saline solution (5%) into the vitreous bilaterally (Krauss et al., 2011, Orihashi et al., 2005).
IOP was measured using a Tono-Pen XL prior to hypertonic saline injection (basal) and at 30, 60, 120 and 240 min thereafter. Vehicle (5% cremophor-EL; 0.3% DMSO; 0.2 mg/ml Benzalkonium chloride in PBS pH 6.0) or compound was instilled as eye drops immediately after hypertonic saline injection. Eyes were randomly assigned to different treatment groups. Vehicle and compound were directly instilled into the conjunctiva pocket at the desired doses. One drop of 0.4% oxybuprocaine hydrochloride (Novesine, Sandoz) was instilled in each eye immediately before each set of pressure measurements.
Results are reported in Table 3 and they are expressed as IOP change (at 60 and 120 minutes following topical administration) versus vehicle and versus IOP at basal before hypertonic saline injection.

[4] = system: hypertonic saline-induced IOP increase; assay: IOP lowering activity in hypertonic saline-induced IOP increase in rabbits, versus ISMN (Example 17); format: in vivo, New Zealand White rabbits; conditions: for IOP change (mmHg): dose 1%, versus vehicle and versus basal IOP
Procedure: The present study evaluated the intraocular pressure lowering effect of single application of compound (15) (Example 12) and of ISMN (isosorbide-5-mononitrate) used as reference compound, in an animal model of elevated IOP.
as §1, §2
IOP was measured using a Tono-Pen XL prior to hypertonic saline injection (basal) and at 30, 60, 90, 120, 240 and 360 min thereafter. Vehicle (5% cremophor-EL; 0.3% DMSO; 0.2 mg/ml Benzalkonium chloride in PBS pH 6.0,) or tested compound was instilled as eye drops immediately after hypertonic saline injection. Eyes were randomly assigned to different treatment groups. Vehicle or compounds were directly instilled into the conjunctiva pocket at the desired doses. One drop of 0.2% oxybuprocaine hydrochloride (Novesine, Sandoz) diluted 1:1 with saline was instilled in each eye immediately before each set of pressure measurements.
Results are reported in Table 4 and they are expressed as IOP change (at 30 and 60 minutes following topical administration) versus vehicle and versus IOP at basal before hypertonic saline injection.

[5] = system: lipidic peroxidation of membrane lipids in rat hepatic microsomes; conditions: Method B; values from Chegaev et al. (footnotes b, c); read-out: Antioxidant activity IC50 μM (CL 95%); cited from earlier work
[6] = Method A: lipid peroxidation induced by ADP-FeCl3 and NADPH, inhibition of TBARS production after 30 min incubation at 37° C.

O=C(O)/C=C/c1ccc(O)c(O)c1 [Caffeic acid, reference compound]
IC50 ([1]; Method B: lipid peroxidation induced by FeSO4 and ascorbic acid, inhibition of TBARS production after 30 min incubation at 37° C.): 33 µM

CC1=C(C)C(=O)C(C(C)(C)CC(=O)OCCCCO[N+](=O)[O-])=C(C)C1=O [Compound (1), 4-(nitrooxy)butyl 3-methyl-3-(2,4,5-trimethyl-3,6-dioxocyclohexa-1,4-dienyl)butanoate]
IC50 [1, 6]: 28 µM | IOP (mmHg) ([2]; 60 minutes following topical administration (eye drops)): 29 ± 7.8 mmHg | IOP (mmHg) ([2]; 120 minutes following topical administration (eye drops)): 18.9 ± 4.1 mmHg | IOP change (mmHg) ([3]; dose 0.3%, 60 minutes): −5.5 ± 3.1 mmHg | IOP change (mmHg) ([3]; dose 0.3%, 120 minutes): −5.7 ± 2.1 mmHg | IOP change (mmHg) ([3]; dose 1%, 60 minutes): −9.1 ± 3.4 mmHg | IOP change (mmHg) ([3]; dose 1%, 120 minutes): −9.5 ± 2.2 mmHg | IOP reduction (in words) ([3]; single application, both doses (1% and 0.3%)): significant IOP reduction

CC1=C(C)C(=O)C(C(C)(C)CC(=O)OCCCC[C@@H](CO[N+](=O)[O-])O[N+](=O)[O-])=C(C)C1=O [Compound (15), (S)-5,6-bis(nitrooxy)hexyl 3-methyl-3-(2,4,5-trimethyl-3,6-dioxocyclohexa-1,4-dienyl)butanoate]
IOP change (mmHg) ([4]; 30 minutes): −6.5 ± 2.6 mmHg | IOP change (mmHg) ([4]; 60 minutes): −4.9 ± 2.4 mmHg | IOP reduction compared to ISMN (in words) ([4]; single application, 1%): significantly higher IOP reduction as compared to ISMN treated group

CC1=C(C)C(=O)C(C(C)(C)CC(=O)O)=C(C)C1=O [Intermediate 2, 3-methyl-3-(2,4,5-trimethyl-3,6-dioxocyclohexa-1,4-dien-1-yl)butanoic acid]
IC50 [1, 6]: 157 µM

COc1cc(/C=C/C(=O)O)ccc1O [Ferulic acid, reference compound]
IC50 ([1]; Method B, footnote a: tested at 1 mM concentration): 50.5 ± 0.4 µM

CC1=NN(c2ccccc2)C(=O)C1 [Edavarone]
IC50 [5]: 17 µM

O=[N+]([O-])O[C@@H]1CO[C@H]2[C@@H]1OC[C@@H]2O [ISMN, isosorbide-5-mononitrate, reference compound]
IOP change (mmHg) ([4]; 30 minutes): −2.6 ± 3.5 mmHg | IOP change (mmHg) ([4]; 60 minutes): −0.7 ± 2.9 mmHg

COc1ccc2[nH]cc(CCNC(C)=O)c2c1 [Melatonin]
IC50 [5]: 476 µM
